# Patent publication US20030092640A1, “Azalide antibiotic compositions” (Pfizer Inc., priority 2001, published 2003)
# Several values for one entry are separate records, joined by “and”; a condition that tells them apart may be missing. Equal values may be shown once.
# Assays:
# S. aureus = test: Assay I liquid dilution MIC, S. aureus; type: cell-based; settings: Staphylococcus aureus, 18 h, read-out: MIC against S. aureus
# [1] = Potency retention (HPLC stability) of azalide in aqueous propylene glycol/citric acid compositions; type: physicochemical; settings: 0.1 M citric acid
# Protocol: As used in this application, the term “potency” means the amount of an azalide compound present in a “test” sample subjected to a particular set of experimental conditions during a particular time interval, relative to the amount of the azalide compound present in an otherwise identical “control” sample stored at 5° C. for the same time interval. Upon completion of the experiment for a given sample, the test and control samples are typically subjected to appropriate processing steps to allow accurate determination of the amount of the azalide compound. Relative amounts of azalide compound in the test and control samples may be determined by any number of means which are well-known in the art, such as high performance liquid chromatography (“HPLC”), nuclear magnetic resonance spectroscopy (“NMR”), gas chromatography (“GC”), mass spectrometry (“MS”), liquid chromatography/mass spectrometry (“LC/MS”), GC/MS, and thin layer chromatography (“TLC”).
# Preferred methods for determining that a stable azalide composition has been obtained include gel chromatography, thin-layer chromatography, and HPLC. More preferably, HPLC is used. To monitor the compositions of the invention for potency, after dilution to final volume and sterilization by filtration, the compositions were subdivided into 3.5 mL glass vials which were sealed with rubber stoppers and an aluminum crimp. For the tests reported below, approximately 10 vials containing 2.5 mL each were prepared.
# Approximately 30 mL of each composition listed in Table 1 below was prepared as follows:
# 1) Sufficient citric acid was added to Water for Injection to produce a solution having a final concentration of acid of 0.1 M;
# 2) The compound of formula 1a or 1b was added in an amount to produce a final azalide concentration of 100 mg/mL (0.12 mmol/mL of the composition), and the mixture was stirred until the azalide was dissolved;
# 3) Propylene glycol was added to produce a concentration in the final mixture of from about 25% to about 75% by weight relative to the total volume;
# 4) The pH was adjusted by addition of 10% aqueous HCl or 10 M aqueous NaOH as necessary;
# 5) Water for Injection was added to bring the volume to 30 mL;
# 6) Each sample was subdivided by filtration through a 0.22 micron Millex GV filter into 3.5 mL glass vials which were each sealed with a rubber stopper and an overseal consisting of an aluminum crimp. Approximately 10 vials containing 2.5 mL each were prepared for each sample.
# To monitor the stability of the azalide compositions, vials were assayed by HPLC after exposure to elevated temperatures for a period of time. Aliquots were removed from vials and diluted with a mixture of 15% 10 mM potassium phosphate buffer, pH 6.5, 85% 1:1 (v/v) acetonitrile:methanol to a concentration of approximately 1.0 mg of the compound of formula 1 per mL total sample volume. Diluted samples were subjected to chromatography in a Waters Alliance 2690 HPLC system having a 2487 UV detector. The column was a Waters Symmetry C-18, 5 micron (250×4.6 mm), the mobile phase was the same as the phosphate/acetonitrile/methanol diluent above and the flow rate was 1 mL/minute. Peaks were detected by monitoring ultraviolet absorption at 210 nm. Relative amounts of azalide compound in the experimental samples and the controls were determined by taking the ratio of their relative chromatogram-peak areas. Although HPLC was used in this experiment, other known methods, including NMR, GC, MS, LC/MS, GC/MS, and TLC can be used to evaluate the potency of the compound of formula 1.
# The results are reported in Table 1 below as a percentage of the compound of formula 1 remaining after exposure to various temperature and duration conditions, relative to the amount of the compound present in an otherwise identical sample stored at 5° C. for the same time interval.
# E. coli = test: Assay I liquid dilution MIC, E. coli; type: cell-based; settings: Escherichia coli, 18 h, read-out: MIC against E. coli
# [2] = tested on: Pasteurella multocida (strain 59A067); test: Assay I liquid dilution MIC, P. multocida; type: cell-based; settings: 100% inhibition of growth, 37° C., 18 hours, BHI broth, read-out: MIC against P. multocida
# Protocol: This assay employs conventional methodology and interpretation criteria and is designed to test for activity against Pasteurella multocida, using the liquid dilution method in microliter format. A single colony of P. multocida (strain 59A067) is inoculated into 5 mL of brain heart infusion (BHI) broth. The azalide formulation is prepared by solubilizing 1 mg of the azalide composition in 125 μL of dimethylsulfoxide (DMSO). Dilutions of the azalide compositions are prepared using uninoculated BHI broth. The concentrations of the azalide compounds used range from 200 μg/mL to 0.098 μg/mL by two-fold serial dilutions. The P. multocida inoculated BHI is diluted with uninoculated BHI broth to make a 10^4 cell suspension per 200 μL. The BHI cell suspensions are mixed with respective serial dilutions of the azalide compositions, and incubated at 37° C. for 18 hours.
# Accordingly, as expected, the azalide compounds used in this invention are active against a variety of organisms.
# [3] = preparation 1: propylene glycol 50 w/v %, pH 4.5, 100 mg/mL azalide
# [4] = preparation 2: propylene glycol 25 w/v %, pH 5.0, 100 mg/mL azalide
# [5] = preparation 3: propylene glycol 75 w/v %, pH 5.0, 100 mg/mL azalide
# [6] = preparation 7: propylene glycol 25 w/v %, pH 6.0, 100 mg/mL azalide
# [7] = preparation 8: propylene glycol 75 w/v %, pH 6.0, 100 mg/mL azalide
# [8] = preparation 9: propylene glycol 50 w/v %, pH 6.5, 100 mg/mL azalide
# [9] = preparations 4, 5, 6: propylene glycol 50 w/v %, pH 5.5, 100 mg/mL azalide
Structure (SMILES),MIC (S. aureus) [µg/mL],"Potency (% of 5° C.) 6 weeks, 50° C. [1, 3] [%]","Potency (% of 5° C.) 12 weeks, 50° C. [1, 3] [%]","Potency (% of 5° C.) 6 weeks, 50° C. [1, 4] [%]","Potency (% of 5° C.) 12 weeks, 50° C. [1, 4] [%]","Potency (% of 5° C.) 6 weeks, 50° C. [1, 5] [%]","Potency (% of 5° C.) 12 weeks, 50° C. [1, 5] [%]","Potency (% of 5° C.) 6 weeks, 50° C. [1, 6] [%]","Potency (% of 5° C.) 12 weeks, 50° C. [1, 6] [%]","Potency (% of 5° C.) 6 weeks, 50° C. [1, 7] [%]","Potency (% of 5° C.) 12 weeks, 50° C. [1, 7] [%]","Potency (% of 5° C.) 6 weeks, 50° C. [1, 8] [%]","Potency (% of 5° C.) 12 weeks, 50° C. [1, 8] [%]","Potency (% of 5° C.) 6 weeks, 50° C. [1, 9]","Potency (% of 5° C.) 12 weeks, 50° C. [1, 9]",MIC (E. coli) [µg/mL],MIC [2] [µg/mL]
"CC[C@H]1OC(=O)[C@H](C)[C@@H](O[C@H]2C[C@@](C)(OC)[C@](O)(CNC(C)C)[C@H](C)O2)[C@H](C)[C@@H](O[C@@H]2O[C@H](C)C[C@H](N(C)C)[C@H]2O)[C@](C)(O)C[C@@H](C)CN(C)[C@H](C)[C@@H](O)[C@]1(C)O [Compound 1a, 1-Oxa-6-azacyclopentadecan-15-one, 13-[[2,6-dideoxy-3-C-methyl-3-O-methyl-4-C-[[(1-methylethyl)amino]methyl]-α-L-ribo-hexopyranosyl]oxy]-2-ethyl-3,4,10-trihydroxy-3,5,6,8,10,12,14-heptamethyl-11-[[3,4,6-trideoxy-3-(dimethylamino)-β-D-xylo-hexopyranosyl]oxy]-, (2R,3S,4R,5R,8R,10R,11R,12S,13S,14R)-]",0.2,91.9,91.3,93.6,87.9,96.0,102.6,90.6,85.7,89.5,89.8,84.1,75.9,96.3% and 95.6% and 93.9%,92.9% and 91.4% and 90.4%,0.39,0.05
"CC[C@H]1OC(=O)[C@H](C)[C@@H](O[C@H]2C[C@@](C)(OC)[C@](O)(CN(C)CC)[C@H](C)O2)[C@H](C)[C@@H](O[C@@H]2O[C@H](C)C[C@H](N(C)C)[C@H]2O)[C@](C)(O)C[C@@H](C)CN(C)[C@H](C)[C@@H](O)[C@]1(C)O [Compound 1b, 1-Oxa-6-azacyclopentadecan-15-one, 13-[[2,6-dideoxy-4-C-[(ethylmethylamino)methyl]-3-C-methyl-3-O-methyl-α-L-ribo-hexopyranosyl]oxy]-2-ethyl-3,4,10-trihydroxy-3,5,6,8,10,12,14-heptamethyl-11-[[3,4,6-trideoxy-3-(dimethylamino)-β-D-xylo-hexopyranosyl]oxy]-, (2R,3S,4R,5R,8R,10R,11R,12S,13S,14R)-]",0.39,96.1,92.1,96.5,92.4,98.8,96.1,90.0,81.5,93.8,94.0,86.5,76.5,94.9% and 93.0% and 93.3%,91.8% and 96.1% and 95.3%,0.39,0.05
